In patent US9101638B2, “Boronic acid derivatives and therapeutic uses thereof” (Rempex Pharmaceuticals, Inc., priority 2013, dated 2015):

Tests used:
ECL1002 = experiment: Potentiation of aztreonam, strain ECL1002; format: cell-based; details: minimum BLI concentration inhibiting growth with 4 μg/mL aztreonam
CathepsinG = molecular target: T1, CathepsinG (Homo sapiens, UniProt P08311); experiment: Serine protease inhibition: cathepsin G; format: biochemical, mammalian; details: Table 8B
T1 construct: purchased EMD Millipore 219373
T1 sequence (P08311 21-244): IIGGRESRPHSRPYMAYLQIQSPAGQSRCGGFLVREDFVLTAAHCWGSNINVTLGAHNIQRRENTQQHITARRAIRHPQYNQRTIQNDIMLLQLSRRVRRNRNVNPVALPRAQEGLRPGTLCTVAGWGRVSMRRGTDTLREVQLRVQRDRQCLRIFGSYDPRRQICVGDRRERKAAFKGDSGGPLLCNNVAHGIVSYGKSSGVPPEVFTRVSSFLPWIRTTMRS
Protocol: (§1) The effect of selected BLIs on the enzymatic activity of some common mammalian serine proteases was evaluated.
(§2) 50 μl of the diluted enzyme was mixed with 50 μl of inhibitor at various concentrations and 50 μl of corresponding buffer (Table 7). Reaction mixtures were incubated for 10 min at 37° C. Subsequently, 50 μl of corresponding substrate (Table 7) was added and absorbance or fluorescence was monitored for 30 min on SpectraMax M2 plate reader (Molecular Devices). 4-(2-Aminoethyl)benzenesulfonyl fluoride hydrochloride (AEBSF) and leupeptin were used as positive controls. Rates of reaction were calculated and presented relative to “no treatment” control.

ec308 (SHV-5) [1] = experiment: Potentiation of aztreonam, strain ec308; format: cell-based; details: minimum BLI concentration inhibiting growth with 4 μg/mL aztreonam
CathepsinA = molecular target: T2, CathepsinA (Homo sapiens, UniProt P10619); experiment: Serine protease inhibition: cathepsin A; format: biochemical, mammalian; details: Table 8B; read-out: IC50 CathepsinA
T2 construct: purchased R&D Systems 1049-SE
T2 sequence (P10619 29-480): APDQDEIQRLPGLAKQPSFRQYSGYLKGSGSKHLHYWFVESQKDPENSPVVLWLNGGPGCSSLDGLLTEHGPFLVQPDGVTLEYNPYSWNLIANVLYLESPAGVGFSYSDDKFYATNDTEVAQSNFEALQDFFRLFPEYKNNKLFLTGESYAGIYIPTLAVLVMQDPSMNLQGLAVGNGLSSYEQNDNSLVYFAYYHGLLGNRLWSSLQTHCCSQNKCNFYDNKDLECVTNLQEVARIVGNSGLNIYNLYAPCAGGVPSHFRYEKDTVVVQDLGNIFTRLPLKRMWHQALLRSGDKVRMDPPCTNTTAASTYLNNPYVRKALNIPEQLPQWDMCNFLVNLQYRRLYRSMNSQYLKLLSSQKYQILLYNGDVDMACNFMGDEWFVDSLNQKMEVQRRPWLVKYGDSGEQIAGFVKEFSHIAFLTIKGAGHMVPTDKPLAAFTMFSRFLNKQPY
Protocol: as §1, §2

CTX-M-14 = CTX-M-14 (Escherichia coli, UniProt Q9L5C7); experiment: Inhibition of nitrocefin cleavage by purified CTX-M-14; format: biochemical; details: nitrocefin reporter substrate, purified enzyme; read-out: Ki (CTX-M-14, NCF)
Sequence of CTX-M-14 (Q9L5C7 entry or part of it): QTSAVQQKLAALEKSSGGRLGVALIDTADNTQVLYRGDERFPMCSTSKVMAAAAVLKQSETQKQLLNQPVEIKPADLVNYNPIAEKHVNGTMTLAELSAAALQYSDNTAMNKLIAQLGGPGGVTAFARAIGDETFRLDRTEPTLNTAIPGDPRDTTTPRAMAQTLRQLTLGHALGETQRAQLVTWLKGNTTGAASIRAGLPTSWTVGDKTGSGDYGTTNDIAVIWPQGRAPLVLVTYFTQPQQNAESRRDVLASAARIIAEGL
Protocol: (§3) Purified enzymes were mixed with various concentrations of inhibitors in reaction buffer and incubated for 10 min at room temperature. Nitrocefin was added and substrate cleavage profiles were recorded at 490 nm every 10 sec for 10 min.

KP1005 (CTX-M-14) = experiment: Potentiation of aztreonam, strain KP1005; format: cell-based
KPC-2 = KPC-2 (Klebsiella pneumoniae, UniProt Q9F663); experiment: Inhibition of nitrocefin cleavage by purified KPC-2; format: biochemical; details: nitrocefin reporter substrate, purified enzyme; read-out: Ki (KPC-2, NCF)
Sequence of KPC-2 (Q9F663 25-293, looked up, species assumed): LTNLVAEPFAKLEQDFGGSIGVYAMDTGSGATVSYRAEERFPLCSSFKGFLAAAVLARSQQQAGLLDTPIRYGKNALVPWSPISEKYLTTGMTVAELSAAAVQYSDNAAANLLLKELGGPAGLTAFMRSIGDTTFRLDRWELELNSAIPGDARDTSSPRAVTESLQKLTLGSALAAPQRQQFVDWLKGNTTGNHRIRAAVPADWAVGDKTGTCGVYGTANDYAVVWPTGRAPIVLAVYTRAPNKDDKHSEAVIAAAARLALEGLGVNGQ
Protocol: as §3

KP1004 (K-2) = experiment: Potentiation of aztreonam, strain KP1004; format: cell-based; details: minimum BLI concentration inhibiting growth with 4 μg/mL aztreonam
ec302 (TEM-10) [2] = experiment: Potentiation of aztreonam, strain ec302; format: cell-based
ec302 (TEM-10) [3] = experiment: Potentiation of tigemonam, strain ec302; format: cell-based
SHV-12 = SHV-12 (Klebsiella pneumoniae, UniProt P0AD64, E235K/G234S/L31Q); experiment: Inhibition of nitrocefin cleavage by purified SHV-12; format: biochemical; details: nitrocefin reporter substrate, purified enzyme; read-out: Ki (SHV-12, NCF)
Sequence of SHV-12 (P0AD64 22-286 L31Q/G234S/E235K): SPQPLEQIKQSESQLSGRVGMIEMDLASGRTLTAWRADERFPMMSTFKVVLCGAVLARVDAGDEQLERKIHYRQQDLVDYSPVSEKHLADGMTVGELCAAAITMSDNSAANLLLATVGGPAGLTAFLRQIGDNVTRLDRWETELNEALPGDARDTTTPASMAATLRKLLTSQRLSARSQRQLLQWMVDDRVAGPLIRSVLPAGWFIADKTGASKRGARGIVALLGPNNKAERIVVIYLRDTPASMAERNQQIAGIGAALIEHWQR
Protocol: as §3

EC1010 (CMY-6) [4] = format: cell-based
EC1010 (CMY-6) [5] = experiment: Potentiation of aztreonam, strain EC1010; format: cell-based
PAM1154/KPC-2 = experiment: Biapenem potentiation in PAM1154/KPC-2 (MexAB-OprM lacking); format: cell-based, Pseudomonas aeruginosa
Protocol: (§4) Efflux of BLIs from Pseudomonas aeruginosa by the MexAB-OprM efflux pump was also evaluated. […] Due to expression of KPC-2 both strains became resistant to biapenem. […] Potency of BLIs to potentiate biapenem in these strains was determined. […] The ratio of MPC64 values for each BLI in PAM1032/KPC-2 (efflux proficient) and PAM1154/KPC-2 (efflux deficient) was determined to generate the Efflux Index (EI).

PAM1032/KPC-2 = experiment: Biapenem potentiation in PAM1032/KPC-2 (MexAB-OprM overexpressed); format: cell-based, Pseudomonas aeruginosa; details: BLI potency to decrease biapenem MIC 64-fold, 32 to 0.5 μg/ml; efflux proficient strain
Protocol: as §4

KP1009 (CTX-M-15) [6] = experiment: Potentiation of tigemonam, strain KP1009; details: minimum BLI concentration inhibiting growth with 4 μg/mL tigemonam
ec308 (SHV-5) [7] = experiment: Potentiation of tigemonam, strain ec308; format: cell-based; details: minimum BLI concentration inhibiting growth with 4 μg/mL tigemonam
KP1009 (CTX-M-15) [8] = experiment: Potentiation of aztreonam, strain KP1009; format: cell-based
OXA-48 = OXA-48 (Klebsiella pneumoniae, UniProt Q6XEC0); experiment: Inhibition of nitrocefin cleavage by purified OXA-48; format: biochemical; details: nitrocefin reporter substrate, purified enzyme; read-out: Ki (OXA-48, NCF)
Sequence of OXA-48 (Q6XEC0 23-265 limits assumed): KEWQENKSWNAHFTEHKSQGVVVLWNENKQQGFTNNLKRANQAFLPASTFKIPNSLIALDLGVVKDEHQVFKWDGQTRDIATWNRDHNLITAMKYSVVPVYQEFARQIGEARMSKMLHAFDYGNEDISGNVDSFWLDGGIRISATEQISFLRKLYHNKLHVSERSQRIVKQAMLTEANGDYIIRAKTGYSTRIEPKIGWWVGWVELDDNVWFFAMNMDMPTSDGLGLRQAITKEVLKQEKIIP
Protocol: as §3

Row | SMILES | AZT MPC4 ECL1002 (ECL1002) | IC50 (CathepsinG) [µM] | AZT MPC4 SHV-5 ec308 (ec308 (SHV-5) [1]) | IC50 (CathepsinA) [µM] | Ki (CTX-M-14) [µM] | AZT MPC4 CTX-M-14 KP1005 (KP1005 (CTX-M-14)) | Ki (KPC-2) [µM] | AZT MPC4 K-2 KP1004 (KP1004 (K-2)) | AZT MPC4 TEM-10 ec302 (ec302 (TEM-10) [2]) | TIG MPC4 TEM-10 ec302 (ec302 (TEM-10) [3]) | Ki (SHV-12) [µM] | TIG MPC4 CMY-6 EC1010 (EC1010 (CMY-6) [4]) | AZT MPC4 CMY-6 EC1010 (EC1010 (CMY-6) [5]) | PAM1154/KPC-2 Biapenem MPC64 (PAM1154/KPC-2) | PAM1032/KPC-2 Biapenem MPC64 (PAM1032/KPC-2) | TIG MPC4 CTX-M-15 KP1009 (KP1009 (CTX-M-15) [6]) | TIG MPC4 SHV-5 ec308 (ec308 (SHV-5) [7]) | AZT MPC4 CTX-M-15 KP1009 (KP1009 (CTX-M-15) [8]) | Ki (OXA-48) [µM]
1 | O=C(N[C@H]1Cc2cccc(C(=O)O)c2OB1O)c1cncc(F)c1 [Compound 14, (R)-3-(5-fluoronicotinamido)-2-hydroxy-3,4-dihydro-2H-benzo[e][1,2]oxaborinine-8-carboxylic acid] | Y (Y = MIC of 1 μg/mL to 10 μg/mL) | 15 to 500 | Y (Y = MIC of 1 μg/mL to 10 μg/mL) | 15 to 500 | < 0.001 | Y (key: X = MIC of less than 1 μg/mL; Y = MIC of 1 μg/mL to 10 μg/mL; Z = MIC of greater than 10 μg/mL) | > 0.01 | Y (Y = MIC of 1 μg/mL to 10 μg/mL) | Y (key: X = MIC of less than 1 μg/mL; Y = MIC of 1 μg/mL to 10 μg/mL; Z = MIC of greater than 10 μg/mL) | Y (key: X = MIC of less than 1 μg/mL; Y = MIC of 1 μg/mL to 10 μg/mL; Z = MIC of greater than 10 μg/mL) | < 0.001 | Y (key: X = MIC of less than 1 μg/mL; Y = MIC of 1 μg/mL to 10 μg/mL; Z = MIC of greater than 10 μg/mL) | Y (key: X = MIC of less than 1 μg/mL; Y = MIC of 1 μg/mL to 10 μg/mL; Z = MIC of greater than 10 μg/mL) | X (key: X = Less than 10; Y = 10 to 40; Z Greater than 40) | Z (Z Greater than 40) | Y (Y = MIC of 1 μg/mL to 10 μg/mL) | Y (Y = MIC of 1 μg/mL to 10 μg/mL) | Y (key: X = MIC of less than 1 μg/mL; Y = MIC of 1 μg/mL to 10 μg/mL; Z = MIC of greater than 10 μg/mL) | –
2 | CSCC(=O)N[C@H]1Cc2cccc(C(=O)O)c2OB1O [Compound 13, (R)-2-hydroxy-3-(2-(methylthio)acetamido)-3,4-dihydro-2H-benzo[e][1,2]oxaborinine-8-carboxylic acid] | X (X = MIC of less than 1 μg/mL) | – | X (X = MIC of less than 1 μg/mL) | – | < 0.001 | X (key: X = MIC of less than 1 μg/mL; Y = MIC of 1 μg/mL to 10 μg/mL; Z = MIC of greater than 10 μg/mL) | > 0.01 | X (X = MIC of less than 1 μg/mL) | Y (key: X = MIC of less than 1 μg/mL; Y = MIC of 1 μg/mL to 10 μg/mL; Z = MIC of greater than 10 μg/mL) | – | – | X (key: X = MIC of less than 1 μg/mL; Y = MIC of 1 μg/mL to 10 μg/mL; Z = MIC of greater than 10 μg/mL) | – | X (key: X = Less than 10; Y = 10 to 40; Z Greater than 40) | Y (Y = 10 to 40) | X (X = MIC of less than 1 μg/mL) | X (X = MIC of less than 1 μg/mL) | – | < 0.001
